Reference: article PMC10253456, “Investigating the Contribution of Major Drug-Metabolising Enzymes to Possum-Specific Fertility Control” (International Journal of Molecular Sciences, 2023)
Where two headings read alike, the source gives them in different places.

Key:
CYP3A [1] = experiment: CYP3A catalytic activity with midazolam and triazolam as substrates; details: erythromycin vs midazolam and triazolam
UGT2B [2] = experiment: p-nitrophenol glucuronidation activity in pooled human liver microsomes
[3] = tested on: cineole metabolism in wild possum liver microsomes; design: method as in PMID 12593759; details: 5 µM ketoconazole; cited from earlier work
UGT2B [4] = experiment: p-nitrophenol glucuronidation activity in possum liver microsomes; format: biochemical, possum (Trichosurus vulpecula); details: for p-nitrophenol glucuronidation (UGT2B) activity, % of the control: at estimated IC50 and 2-fold IC50 values; for % of control (UGT2B4 catalytic activity at 2-fold IC50) / UGT2B4 catalytic activity at 2-fold IC50: compound at estimated 2-fold IC50
UGT2B [5] = experiment: p-nitrophenol glucuronidation activity in mouse liver microsomes
CYP3A [6] = experiment: CYP3A catalytic activity (erythromycin N-demethylation) in pooled human liver microsomes; details: for CYP3A catalytic activity, % of the control: at both estimated IC50 and 2-fold IC50 values (ketoconazole 2.5 and 5 µM)
CYP3A [7] = experiment: CYP3A catalytic activity (erythromycin N-demethylation) in mouse liver microsomes; details: for Percent control catalytic activity at estimated IC50 / Percent control catalytic activity at estimated 2-fold IC50: mouse liver microsomes, initial screen n=1; for Percent control catalytic activity at estimated IC50: compounds without reported IC50 at 1 µM; for CYP3A catalytic activity, % of the control: at both estimated IC50 and 2-fold IC50 values (ketoconazole 2.5 and 5 µM); for Percent control catalytic activity at estimated 2-fold IC50: compounds without reported IC50 at 5 µM
UGT2B [8] = details: avian; for % of control (UGT2B4 catalytic activity at 2-fold IC50) / UGT2B4 catalytic activity at 2-fold IC50: compound at estimated 2-fold IC50
[9] = tested on: erythromycin N-demethylation; design: method as in PMID 15342469; details: pooled human liver microsomes; read-out: concentration reducing erythromycin N-demethylation by ~50% of the control; cited from earlier work
CYP3A [10] = experiment: CYP3A catalytic activity (erythromycin N-demethylation) in possum liver microsomes; details: for Percent control catalytic activity at estimated IC50 / Percent control catalytic activity at estimated 2-fold IC50: possum liver microsomes, initial screen n=1; for Percent control catalytic activity at estimated IC50: compounds without reported IC50 at 1 µM; for Percent control catalytic activity at estimated 2-fold IC50: compounds without reported IC50 at 5 µM
[11] = tested on: UGT isoforms of the UGT1 and UGT2B families; design: method as in PMID 25008344; details: pooled human liver and intestinal microsomes; read-out: concentration reducing glucuronidation of 4-methylumbelliferone by ~50% of the control; cited from earlier work
[12] = tested on: UGT2B4, UGT2B7, UGT2B15, and UGT2B17; details: cited from earlier work
UGT2B (heading: UGT2B4) [13] = experiment: p-nitrophenol glucuronidation activity in possum liver microsomes; format: biochemical, possum (Trichosurus vulpecula); details: possum (Trichosurus vulpecula)
CYP3A [14] = details: avian
UGT2B (heading: UGT2B4) [15] = experiment: in vitro; details: avian (mallards and a swan), pH 7.4
UGT2B (heading: UGT2B4) [16] = experiment: in vitro; details: BALB/c, mouse, pH 7.4
testosterone metabolism = tested on: testosterone metabolism; design: method as in PMID 19336903; details: pooled human liver microsomes; cited from earlier work
UGT2B (heading: UGT2B4) [17] = experiment: in vitro; details: human, pH 7.4
mice = details: EE2 5 µg/kg/day; cited from earlier work
[18] = tested on: fathead minnows (Pimephales promelas); design: method as in PMID 17517636; details: EE2 5–6 ng/L; cited from earlier work
[19] = pH 7.4, compound at estimated IC50, read-out: % of control (UGT2B4 catalytic activity at IC50)
[20] = mouse, compound at estimated 2-fold IC50
[21] = compound at estimated 2-fold IC50 (5 µM where none reported)
[22] = mouse, compound at estimated 2-fold IC50 (5 µM where none reported)
[23] = possum, compound at estimated 2-fold IC50 (5 µM where none reported)
[24] = pooled human liver microsomes, compound at estimated 2-fold IC50

For `CC(=O)N1CCN(c2ccc(OCC3COC(Cn4ccnc4)(c4ccc(Cl)cc4Cl)O3)cc2)CC1` (centres unmarked) [Ketoconazole], the “change in the inhibition of the CYP3A enzyme due to substrate choice (present study vs reported study)” value (CYP3A [1]) is listed as > 100 fold, the “p-nitrophenol glucuronidation (UGT2B) activity, % of the control” value (UGT2B [2]) is listed as “did not significantly reduce UGT2B activity to less than 50% of the control” and the “formation of all hydroxycineole metabolites (9-, 3-, 7-hydroxycineole), % of the control” value [3] is listed as “approximately 25 % of the control”. For the same molecule, the “p-nitrophenol glucuronidation (UGT2B) activity, % of the control” value (UGT2B [4]) was “did not significantly reduce UGT2B activity to less than 50% of the control”, the “p-nitrophenol glucuronidation (UGT2B) activity, % of the control” value (UGT2B [4]; listed as ketoconazole) was > 65 % of the control and the “p-nitrophenol glucuronidation (UGT2B) activity, % of the control” value (UGT2B [5]) was “did not significantly reduce UGT2B activity to less than 50% of the control”. For the same molecule, the “CYP3A catalytic activity, % of the control” value (“CYP3A catalytic activity, %” for short) (CYP3A [6]) was 80 % of the control, the “Percent control catalytic activity at estimated IC50” value (CYP3A [7]) was 78 percent control and the “CYP3A catalytic activity, %” value (CYP3A [7]; mouse) was < 50 % of the control. For the same molecule, the “p-nitrophenol glucuronidation (UGT2B) activity, % of the control” value (UGT2B [8]; at estimated IC50 and 2-fold IC50 values) was “did not significantly reduce UGT2B activity to less than 50% of the control”, the IC50 [9] was 0.07 µM and the “Percent control catalytic activity at estimated IC50” value (CYP3A [10]) was 76 percent control. The “reduction of catalytic activity of possum CYP3A compared to the control” value (CYP3A [10]; possum, ketoconazole 5 µM, not statistically significant) was “approximately 27%”.
For `COc1cc([C@@H]2Oc3cc([C@H]4Oc5cc(O)cc(O)c5C(=O)[C@@H]4O)ccc3O[C@H]2CO)ccc1O` [silybin B], the IC50 [11] is given as 87 µM.
In the case of `CC(C)(c1ccc(O)cc1)c1ccc(O)cc1` [bisphenol A], the type of inhibition ([12]; UGT2B4) is listed as “competitive” and the type of inhibition ([12]; UGT2B7, UGT2B15, and UGT2B17) is listed as “non-competitive”.
With `O=c1cc(-c2ccccc2)oc2cc(O)ccc12` [7-Hydroxyflavone] the activity at 30 min (UGT2B (heading: UGT2B4) [13]; [19]) was 100%, the “% of control (UGT2B4 catalytic activity at 2-fold IC50)” value (UGT2B [4]) was 101 % of control and the “UGT2B4 catalytic activity at 2-fold IC50” value (UGT2B [4]) was 3.92 ± 0.02 µmol/mg/min. The “% of control (UGT2B4 catalytic activity at 2-fold IC50)” value (UGT2B [5]; [20]) was 101 % of control, the “UGT2B4 catalytic activity at 2-fold IC50” value (UGT2B [5]; [20]) was 2.55 ± 0.18 µmol/mg/min and the “CYP3A catalytic activity, %” value (CYP3A [6]) was > 83 % of the control. The “% of control (catalytic activity at 2-fold IC50)” value (CYP3A [6]; [21]) was 95 % of control, the “Catalytic activity at 2-fold IC50” value (CYP3A [6]; [21]) was 0.61 nmol/mg/min and the “Percent control catalytic activity at estimated IC50” value (CYP3A [7]) was 97 percent control. For the same molecule, the “Percent control catalytic activity at estimated 2-fold IC50” value (CYP3A [7]) was 97 percent control, the “CYP3A catalytic activity, %” value (CYP3A [7]; mouse) was > 83 % of the control and the “% of control (catalytic activity at 2-fold IC50)” value (CYP3A [7]; [22]) was 90 % of control. For the same molecule, the “Catalytic activity at 2-fold IC50” value (CYP3A [7]; [22]) was 0.40 ± 0.04 nmol/mg/min, the “CYP3A catalytic activity, %” value (CYP3A [14]; at both estimated IC50 and 2-fold IC50 values (or 1 and 5 µM)) was > 83 % of the control and the “% of control (catalytic activity at 2-fold IC50)” value (CYP3A [14]; [21]) was 103 % of control. The “Catalytic activity at 2-fold IC50” value (CYP3A [14]; [21]) was 0.42 ± 0.07 nmol/mg/min, the activity at 30 min (UGT2B (heading: UGT2B4) [15]) was 150% and the “% of control (UGT2B4 catalytic activity at 2-fold IC50)” value (UGT2B [8]) was 92 % of control. For the same molecule, the “UGT2B4 catalytic activity at 2-fold IC50” value (UGT2B [8]) was 0.38 ± 0.12 µmol/mg/min, the activity (UGT2B (heading: UGT2B4) [16]) was 100% and the IC50 (testosterone metabolism) was > 100 µM. For the same molecule, the “Percent control catalytic activity at estimated IC50” value (CYP3A [10]) was 81 percent control, the “Percent control catalytic activity at estimated 2-fold IC50” value (CYP3A [10]) was 78 percent control and the “CYP3A catalytic activity, %” value (CYP3A [10]; possum, at both estimated IC50 and 2-fold IC50 values (or 1 and 5 µM)) was > 83 % of the control. The “% of control (catalytic activity at 2-fold IC50)” value (CYP3A [10]; [23]) was 95 % of control, the “Catalytic activity at 2-fold IC50” value (CYP3A [10]; [23]) was 0.38 ± 0.08 nmol/mg/min and the “reduced catalytic activity of possum CYP3A, % of the control” value (CYP3A [10]; possum, mainly at 5 µM or an estimated 2-fold IC50, not significantly different) was ~ 35 % of the control.
In the case of `O=c1cc(-c2ccccc2)oc2cc(O)c(O)c(O)c12` [Baicalein], the “UGT2B4 catalytic activity at 2-fold IC50” value (UGT2B [2]) is reported as 3.95, the activity at 30 min (UGT2B (heading: UGT2B4) [13]; [19]) is reported as 105% and the “% of control (UGT2B4 catalytic activity at 2-fold IC50)” value (UGT2B [4]) is reported as 106 % of control. For the same molecule, the “UGT2B4 catalytic activity at 2-fold IC50” value (UGT2B [4]) was 3.91 ± 0.20 µmol/mg/min, the activity (UGT2B (heading: UGT2B4) [17]) was 97% and the “% of control (UGT2B4 catalytic activity at 2-fold IC50)” value (UGT2B [5]) was 95. For the same molecule, the “UGT2B4 catalytic activity at 2-fold IC50” value (UGT2B [5]) was 3.08±0.04, the “Percent control catalytic activity at estimated IC50” value (CYP3A [7]) was 114 percent control and the “Percent control catalytic activity at estimated 2-fold IC50” value (CYP3A [7]) was 99 percent control. The activity at 30 min (UGT2B (heading: UGT2B4) [15]) was 56%, the “% of control (UGT2B4 catalytic activity at 2-fold IC50)” value (UGT2B [8]) was 44 % of control and the “UGT2B4 catalytic activity at 2-fold IC50” value (UGT2B [8]) was 0.17 ± 0.06 µmol/mg/min. For the same molecule, the activity (UGT2B (heading: UGT2B4) [16]) was 96%, the “Percent control catalytic activity at estimated IC50” value (CYP3A [10]) was 102 percent control and the “Percent control catalytic activity at estimated 2-fold IC50” value (CYP3A [10]) was 112 percent control.
For `COc1cc([C@@H]2Oc3ccc([C@H]4Oc5cc(O)cc(O)c5C(=O)[C@@H]4O)cc3O[C@H]2CO)ccc1O` [isosilybin B], the IC50 [11] is given as 187 µM.
With `CC(=O)O[C@H](CC=C(C)C)C1=CC(=O)c2c(O)ccc(O)c2C1=O` [Acetylshikonin] the “% of control (UGT2B4 catalytic activity at 2-fold IC50)” value (UGT2B [2]; [24]) was 100 % of control, the “UGT2B4 catalytic activity at 2-fold IC50” value (UGT2B [2]; [24]) was 3.70 µmol/mg/min and the activity at 30 min (UGT2B (heading: UGT2B4) [13]; liver microsomes, pH 7.4, probe p-nitrophenol (0.5 mM final, from 50 µL of 5 mM in 500 µL), compound at estimated IC50, read-out: % of control (UGT2B4 catalytic activity at IC50)) was 96%. For the same molecule, the “% of control (UGT2B4 catalytic activity at 2-fold IC50)” value (UGT2B [4]) was 101 % of control, the “UGT2B4 catalytic activity at 2-fold IC50” value (UGT2B [4]) was 3.70 ± 0.18 µmol/mg/min and the activity (UGT2B (heading: UGT2B4) [17]) was 98%. For the same molecule, the “% of control (UGT2B4 catalytic activity at 2-fold IC50)” value (UGT2B [5]; [20]) was 94 % of control, the “UGT2B4 catalytic activity at 2-fold IC50” value (UGT2B [5]; [20]) was 2.92 ± 0.22 µmol/mg/min and the “Percent control catalytic activity at estimated IC50” value (CYP3A [7]) was 100 percent control. The “Percent control catalytic activity at estimated 2-fold IC50” value (CYP3A [7]) was 93 percent control, the activity at 30 min (UGT2B (heading: UGT2B4) [15]) was 87% and the “% of control (UGT2B4 catalytic activity at 2-fold IC50)” value (UGT2B [8]) was 84 % of control. The “UGT2B4 catalytic activity at 2-fold IC50” value (UGT2B [8]) was 0.53 ± 0.08 µmol/mg/min, the activity (UGT2B (heading: UGT2B4) [16]) was 93% and the “Percent control catalytic activity at estimated IC50” value (CYP3A [10]) was 128 percent control. The “Percent control catalytic activity at estimated 2-fold IC50” value (CYP3A [10]) was 112 percent control.
In the case of `C#C[C@]1(O)CC[C@H]2[C@@H]3CCc4cc(O)ccc4[C@H]3CC[C@@]21C` [EE2, ethinylestradiol], the “effect of developmental exposure on behaviour” value (mice) is given as “behavioural masculinisation” and the “effect of exposure on fish” value [18] is given as “feminisation of male fathead minnows”.
